Measurements as given in patent US20260337229A1 (Seattle Children's Hospital (d/b/a Seattle Children's …, priority 2022, published 2026).
Like-named read-outs stand apart in the source and are kept apart here. Residues, ends and D or L forms follow the SMILES beside them.

How the values were obtained:
[1] = Dose escalation study in DIO rats; type: in vivo, male DIO Sprague Dawley rats
Excerpt: Male DIO Sprague Dawley rats (n=4) were fed 60% HF diet (formula: D12492; Research Diets, Inc., New Brunswick, NJ, USA; 5.21 kcal/g) for 16 weeks prior to the start of the study. Rats were changed to being singly housed and allowed to acclimate for at least one week prior to the start of this study. Animals averaged 844.15 Z 99.95 g at baseline. Baseline measures of body weight, food intake, and water intake were taken for 6 days before drug administration began. Doses for the dose escalation study included 1, 2, 5, 10, 20, 50, and 100 nmol/kg. Body weight, food and water intake were assessed just prior to the start of the dark cycle. […] In certain embodiments, the greatest anorectic effect achieved with ASK1476 occurred at the 300 nmol/kg/d dose yielding a ~34% reduction in caloric intake while ASK2131 dosed at 2 nmol/kg/d yielded a ~55% reduction in caloric intake.

[2] = in words; cited from earlier work
[3] = 22-day long-term study in DIO rats (body weight, food and water intake); type: in vivo, male Sprague Dawley rats
Excerpt: For studies utilizing a DIO rat model, male Sprague Dawley rats (CD-IGS rats, strain 001; approximately 4 weeks of age; 51-75 g) purchased from Charles River Laboratories (Wilmington, MA, USA). These rats were fed a diet of 60% calories from fat (Formula: D12492; Research Diets, Inc., New Brunswick, NJ, USA; 5.21 kcal/g) for 4.5 to 6 months prior to the start of the study to induce obesity. For studies utilizing lean rats, male Sprague Dawley rats (CD-IGS rats, strain 001; 226-250 g) purchased from Charles River Laboratories (Wilmington, MA, USA). All rats had ad libitum access to food and water and were kept on a 12 h light/12 h dark cycle. Animals were individually housed in a temperature (22±1° C.) and humidity (57±4%) controlled room. All body weight measurements were taken just prior to the start of the dark cycle.
(§1) Male Sprague Dawley rats were fed 60% HF diet (D12492; Research Diets, Inc; New Brunswick, NJ; 5.21 kcal/g) for 16 weeks prior to the start of the study. Rats were then singly house in BioDAQ cages (Research Diets, Inc.; New Brunswick, NJ) and allowed to acclimate to their new environment for 10 days. Baseline measures of body weight, food intake and water intake were taken for one week to balance the groups and create feeding pairs. Each group (n=6 animals/group) averaged 714.47±81.6 g at baseline (Table 3).
(§2) Effects of ASK2131 were compared to a vehicle-treated group, OXT-treated group, as well as a pair-fed control group. Three days of baseline measures were taken before subcutaneous treatment administration began on day 4 of the study. Assessments were made to body weight, food intake and water intake. ASK2131 was administered at 50 nmol/kg throughout the entire study period. […] OXT-treated animals were started at 50 nmol/kg dose for two days, followed by 150 nmol/kg, then 300 nmol/kg, until ending at 600 nmol/kg for the remainder of the study.

[4] = Blood parameters after 22-day treatment of DIO rats; type: in vivo, male Sprague Dawley rats; settings: 22 days sc, mean ± SEM, OXT n=4
Excerpt: as §1, §2
Cardiac puncture was used to collect blood for analysis 2 h post final injection. Commercially available enzyme-linked immunosorbent assays (ELISA) were used for quantitative assessment of leptin (cat. #EZRL-83K; MilliporeSigma, Burlington, MA, USA), insulin (cat. #EZRMI-13K; MilliporeSigma, Burlington, MA, USA), and adiponectin (cat. #EZRAPD-62K MilliporeSigma, Burlington, MA, USA). Serum samples were diluted 1:500 for the adiponectin ELISA using the sample diluent provided with the kit. All ELISAs were completed following the manufacturers recommendations. Levels of glucose, cholesterol (total, HDL, and calculated LDL), triglycerides, ALT, and AST were determined in the serum on a Modular P chemistry analyzer (Roche Diagnostics, Risch-Rotkreuz, Switzerland) by the University of Washington Nutrition and Obesity Research Center's Analytic Core (Seattle, WA, USA).

[5] = iv, rat; marked [2]; cited from earlier work
[6] = sc, mouse, marked [2], cited from earlier work
[7] = cited from earlier work
[8] = cited from earlier work; remark: listed apart in the source
amygdala activation = settings: 24 IU, but not lower (12 IU) or higher (48 IU) doses; in words; cited from earlier work
[9] = intranasal; in words; cited from earlier work
OXT receptors = settings: prolonged OXT treatment, in words, cited from earlier work
[10] = in words; cited from earlier work; remark: listed apart in the source
[11] = peripheral administration; in words; cited from earlier work
[12] = ELISA, 2 h post final injection

CCCCCCCCCCCCCCCC(=O)NCCOCCOCCOCCOCCOCCOCCOCCOCCC(=O)NCCCC[C@H](NC(=O)CNC(=O)[C@@H]1CSSC[C@H](N)C(=O)N[C@@H](Cc2ccc(O)cc2)C(=O)N[C@@H]([C@@H](C)CC)C(=O)N[C@@H](CCC(N)=O)C(=O)N[C@@H](CC(N)=O)C(=O)N1)C(=O)NCC(N)=O [ASK1476] (HELM PEPTIDE1{C.Y.I.Q.N.C.G.K.G.[am]}|PEPTIDE2{[CCCCCCCCCCCCCCCC(=O)[*:2]].[O=C(CCOCCOCCOCCOCCOCCOCCOCCOCCN[*:1])[*:2]]}$PEPTIDE1,PEPTIDE2,8:R3-2:R2|PEPTIDE1,PEPTIDE1,1:R3-6:R3$$$V2.0)
reduction in caloric intake, greatest anorectic effect ([1]; 300 nmol/kg/d): ~ 34%
response in a prior study [2]: U-shaped response

CC[C@H](C)[C@@H]1NC(=O)[C@H](Cc2ccc(O)cc2)NC(=O)[C@@H](N)CSSC[C@@H](C(=O)N2CCC[C@H]2C(=O)N[C@@H](CC(C)C)C(=O)NCC(N)=O)NC(=O)[C@H](CC(N)=O)NC(=O)[C@H](CCC(N)=O)NC1=O [OXT]
Post-treatment body weight ([3]; 22 days sc, ASK2131 50 nmol/kg, OXT titrated 50 to 600 nmol/kg, mean ± SEM): 719 ± 20 g
% change in body weight ([3]; 22 days sc, ASK2131 50 nmol/kg, OXT titrated 50 to 600 nmol/kg, mean ± SEM, superscripts b: p<0.01, c: p<0.001 vs vehicle, d: p<0.001 vs OXT): 0.1 ± 1 ^b %
reduction in food intake compared to vehicle-treated group ([3]; OXT titrated to 600 nmol/kg, 95% CI 0.2550 to 40.59, p=0.0464, in words): did not exhibit a significant reduction in food intake
weight loss vs. vehicle ([3]; end of treatment, OXT titrated to 600 nmol/kg): 5%
body weight, PMD vs vehicle ([3]; treatment day 9, after 8 days, OXT titrated, 95% CI −5.80 to −0.43%, p=0.014): −3.12%
LDL, calculated ([4]; Calculated LDL = Cholesterol − (HDL + Triglycerides/5)): 22 ± 2 mg/dL
Adiponectin [4, 12]: 60.8 ± 3.9 ng/mL
Insulin [4, 12]: 7.2 ± 2.1 ng/mL
Leptin [4, 12]: 54.9 ± 7.9 ng/mL
ALT ([4]; serum 2 h post final injection): 40 ± 5 U/L
AST ([4]; serum 2 h post final injection): 128 ± 22 U/L
Glucose ([4]; serum 2 h post final injection): 203 ± 13 mg/dL
HDL ([4]; serum 2 h post final injection): 25 ± 2 mg/dL
Triglycerides ([4]; serum 2 h post final injection): 145 ± 7 mg/dL
Cholesterol ([4]; serum 2 h post final injection, superscript b: p<0.01 vs vehicle): 76 ± 3 mg/dL
reduction in caloric intake, maximum effect ([1]; 1200 nmol/kg/d): ~ 36%
CLplasma [5]: 17.1 mL/min/kg
T1/2 [5]: 7.2 min
Vd [5]: 0.085 L/kg
T1/2 [6]: 30 min
Tmax [6]: 15 min
free Cmax [6]: 191 nM
Cmax ([6]; total): 216 nM
weight loss through energy expenditure ([7]; in words): elicits weight loss through increases in energy expenditure
change in body weight ([7]; one month: two weeks at 0.2 mg/kg then two weeks at 0.4 mg/kg): 3.3%
change in body weight ([8]; after a single dose of 1000 μg (1000 nmol)): 0.01%
decrease in food intake ([8]; single injection of 1000 μg (1000 nmol)): 12%
amygdala activation (amygdala activation): significant decrease in amygdala activation
body weight in obese humans [9]: shown to reduce body weight in obese humans
dose response in human trials [9]: U-shaped response
desensitization of the OXT receptors (OXT receptors; in vitro): shown to promote desensitization of the OXT receptors in vitro
OXTR binding (OXT receptors): reductions of OXTR binding
blood-brain barrier passage [10]: does not cross the blood-brain barrier
food intake, energy expenditure, weight gain [11]: reduces food intake, enhances energy expenditure, and prevents or reduces weight gain
